Results reported in ChEMBL document CHEMBL1909493, “Synthesis and biological evaluation of novel analogues of the pan class I phosphatidylinositol 3-kinase (PI3K) inhibitor 2-(difluoromethyl)-1-[4,6-di(4-morpholinyl)-1,3,5-triazin-2-yl]-1H-benzimidazole (ZSTK474)” (J Med Chem, 2011).
Converted amounts (≈) assume the structure as drawn.

Key:
[1] = Half life in CD1 mouse at 10 mg/kg, ip administered as single dose by LC-MS/MS analysis; assay type: ADME, organism-based; design: dose 10 mg/kg, route intraperitoneal; conditions: in vivo
[2] = AUC (infinity) in CD1 mouse at 10 mg/kg, ip administered as single dose by LC-MS/MS analysis; assay type: ADME, organism-based; design: time infinity, dose 10 mg/kg, route intraperitoneal; conditions: plasma
[3] = Tmax in CD1 mouse at 10 mg/kg, ip administered as single dose by LC-MS/MS analysis; assay type: ADME, organism-based; design: dose 10 mg/kg, route intraperitoneal; conditions: in vivo
[4] = Cmax in CD1 mouse at 10 mg/kg, ip administered as single dose by LC-MS/MS analysis; assay type: ADME, organism-based; design: dose 10 mg/kg, route intraperitoneal; conditions: in vivo
Mus musculus [5] = test: Toxicity in PTEN-deficient human U87MG cells xenografted Rag1-/- mouse assessed as delayed body weight loss at 50 mg/kg, ip qd for 10 days; assay type: organism-based, U-87MG ATCC; design: dose 50 mg/kg, route intraperitoneal; conditions: in vivo, 240 h
cells [6] = conditions: Homo sapiens, HCT-116
[7] = Antitumor activity in PTEN-deficient human U87MG xenografted in Rag1-/- mouse assessed as inhibition of tumor growth at 15 mg/kg, ip qd for 10 days measured after 10 days (reference value: 18.5 +/- 3.4%); assay type: functional, U-87MG ATCC; conditions: U-87 MG, 240 h, route intraperitoneal, read-out: GI
Mus musculus [8] = test: Toxicity in PTEN-deficient human U87MG cells xenografted Rag1-/- mouse assessed as body weight loss at 15 mg/kg, ip qd for 10 days; assay type: organism-based, U-87MG ATCC; design: dose 15 mg/kg, route intraperitoneal; conditions: in vivo, 240 h
[9] = target: T1, Phosphatidylinositol 4,5-bisphosphate 3-kinase catalytic subunit alpha isoform (Homo sapiens, UniProt P42336); test: Inhibition of PIK3CA-mediated cell signaling in PTEN-deficient human U87MG cells assessed as inhibition of insulin-induced pAkt/PKB phosphorylation at Thr308 treated for 15 mins before insulin challenge measured after 5 mins by immunoblotting; assay type: cell-based, U-87MG ATCC
[10] = target: T1, Phosphatidylinositol 4,5-bisphosphate 3-kinase catalytic subunit alpha isoform; test: Inhibition of PIK3CA-mediated cell signaling in PTEN-deficient human U87MG cells assessed as inhibition of insulin-induced pAkt/PKB phosphorylation at Ser473 treated for 15 mins before insulin challenge measured after 5 mins by immunoblotting; assay type: cell-based, U-87MG ATCC
[11] = target: Phosphatidylinositol 4,5-bisphosphate 3-kinase catalytic subunit alpha isoform (Homo sapiens, UniProt P42336, E545K); test: Inhibition of human PI3K p110alpha helical domain E545K mutant after 2 hrs by HTRF assay
[12] = target: Phosphatidylinositol 4,5-bisphosphate 3-kinase catalytic subunit alpha isoform (Homo sapiens, UniProt P42336, H1047R); test: Inhibition of human His-tagged PI3K p110alpha H1047R mutant after 2 hrs by HTRF assay
[13] = target: Phosphatidylinositol 4,5-bisphosphate 3-kinase catalytic subunit gamma isoform (Homo sapiens, UniProt P48736); test: Inhibition of human His-tagged PI3K p110gamma after 2 hrs by HTRF assay
[14] = target: T2, Phosphatidylinositol 4,5-bisphosphate 3-kinase catalytic subunit delta isoform (Homo sapiens, UniProt O00329); test: Inhibition of human His-tagged PI3K p110delta after 2 hrs by HTRF assay
T2 sequence (O00329 whole entry): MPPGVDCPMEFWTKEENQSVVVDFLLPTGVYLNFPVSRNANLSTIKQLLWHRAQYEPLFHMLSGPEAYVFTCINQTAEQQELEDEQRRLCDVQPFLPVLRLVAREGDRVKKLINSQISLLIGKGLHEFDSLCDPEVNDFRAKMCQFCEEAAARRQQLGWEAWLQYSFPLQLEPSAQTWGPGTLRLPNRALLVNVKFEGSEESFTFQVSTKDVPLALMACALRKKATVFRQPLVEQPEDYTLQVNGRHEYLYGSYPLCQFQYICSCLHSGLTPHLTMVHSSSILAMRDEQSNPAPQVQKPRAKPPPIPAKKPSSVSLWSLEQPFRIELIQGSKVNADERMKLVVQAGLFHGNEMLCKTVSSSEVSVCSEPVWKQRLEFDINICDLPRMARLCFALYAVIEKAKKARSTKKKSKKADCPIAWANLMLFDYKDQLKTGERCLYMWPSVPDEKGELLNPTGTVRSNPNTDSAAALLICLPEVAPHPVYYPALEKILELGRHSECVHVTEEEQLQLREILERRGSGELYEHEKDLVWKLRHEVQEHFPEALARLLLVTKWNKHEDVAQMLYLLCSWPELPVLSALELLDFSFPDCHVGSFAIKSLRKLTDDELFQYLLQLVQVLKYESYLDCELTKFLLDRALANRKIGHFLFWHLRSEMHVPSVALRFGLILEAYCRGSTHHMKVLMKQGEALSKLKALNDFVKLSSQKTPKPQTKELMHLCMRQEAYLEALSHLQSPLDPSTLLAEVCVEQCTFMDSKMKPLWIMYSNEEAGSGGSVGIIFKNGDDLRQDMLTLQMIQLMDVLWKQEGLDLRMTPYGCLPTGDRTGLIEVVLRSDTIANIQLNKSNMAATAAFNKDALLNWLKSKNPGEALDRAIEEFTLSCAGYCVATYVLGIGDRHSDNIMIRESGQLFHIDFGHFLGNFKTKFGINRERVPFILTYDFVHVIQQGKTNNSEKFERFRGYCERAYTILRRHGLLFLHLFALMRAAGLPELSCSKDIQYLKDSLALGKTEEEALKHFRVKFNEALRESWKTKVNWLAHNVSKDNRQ

[15] = target: T3, Phosphatidylinositol 4,5-bisphosphate 3-kinase catalytic subunit beta isoform (Homo sapiens, UniProt P42338); test: Inhibition of human His-tagged PI3K p110beta after 2 hrs by HTRF assay
[16] = target: T1, Phosphatidylinositol 4,5-bisphosphate 3-kinase catalytic subunit alpha isoform; test: Inhibition of human His-tagged PI3K p110alpha after 2 hrs by HTRF assay
[17] = Inhibition of bovine recombinant PI3K p110delta expressed in Sf21 insect cells using phosphatidylinositol as substrate after 1 hr by phosphoimaging; design: species or system Bos taurus
[18] = target: T3, Phosphatidylinositol 4,5-bisphosphate 3-kinase catalytic subunit beta isoform; test: Inhibition of human recombinant PI3K p110beta expressed in Sf21 insect cells using phosphatidylinositol as substrate after 1 hr by phosphoimaging
[19] = target: Phosphatidylinositol 4,5-bisphosphate 3-kinase catalytic subunit alpha isoform (Mus musculus, UniProt P42337); test: Inhibition of mouse recombinant PI3K p110alpha expressed in Sf21 insect cells using phosphatidylinositol as substrate after 1 hr by phosphoimaging
cells [20] = conditions: Homo sapiens, HCT-116; remark: listed apart in the source
cells [21] = conditions: Homo sapiens, NZOV9
cells [22] = conditions: Homo sapiens, NZB5
[23] = Aqueous solubility of the compound in water after 15 mins by HPLC analysis; conditions: aqueous medium
[24] = Antitumor activity in PTEN-deficient human U87MG xenografted in Rag1-/- mouse assessed as inhibition of tumor growth at 40 mg/kg, ip qd for 10 days measured after 10 days (reference value: 18.5 +/- 3.4%); assay type: functional, U-87MG ATCC; conditions: U-87 MG, 240 h, read-out: GI, route intraperitoneal
Mus musculus [25] = test: Toxicity in PTEN-deficient human U87MG cells xenografted Rag1-/- mouse assessed as body weight loss at 40 mg/kg, ip qd for 10 days; assay type: organism-based, U-87MG ATCC; design: dose 40 mg/kg, route intraperitoneal; conditions: in vivo, 240 h

Phosphatidylinositol 4,5-bisphosphate 3-kinase catalytic subunit gamma isoform, sequence (P48736 whole entry, canonical isoform): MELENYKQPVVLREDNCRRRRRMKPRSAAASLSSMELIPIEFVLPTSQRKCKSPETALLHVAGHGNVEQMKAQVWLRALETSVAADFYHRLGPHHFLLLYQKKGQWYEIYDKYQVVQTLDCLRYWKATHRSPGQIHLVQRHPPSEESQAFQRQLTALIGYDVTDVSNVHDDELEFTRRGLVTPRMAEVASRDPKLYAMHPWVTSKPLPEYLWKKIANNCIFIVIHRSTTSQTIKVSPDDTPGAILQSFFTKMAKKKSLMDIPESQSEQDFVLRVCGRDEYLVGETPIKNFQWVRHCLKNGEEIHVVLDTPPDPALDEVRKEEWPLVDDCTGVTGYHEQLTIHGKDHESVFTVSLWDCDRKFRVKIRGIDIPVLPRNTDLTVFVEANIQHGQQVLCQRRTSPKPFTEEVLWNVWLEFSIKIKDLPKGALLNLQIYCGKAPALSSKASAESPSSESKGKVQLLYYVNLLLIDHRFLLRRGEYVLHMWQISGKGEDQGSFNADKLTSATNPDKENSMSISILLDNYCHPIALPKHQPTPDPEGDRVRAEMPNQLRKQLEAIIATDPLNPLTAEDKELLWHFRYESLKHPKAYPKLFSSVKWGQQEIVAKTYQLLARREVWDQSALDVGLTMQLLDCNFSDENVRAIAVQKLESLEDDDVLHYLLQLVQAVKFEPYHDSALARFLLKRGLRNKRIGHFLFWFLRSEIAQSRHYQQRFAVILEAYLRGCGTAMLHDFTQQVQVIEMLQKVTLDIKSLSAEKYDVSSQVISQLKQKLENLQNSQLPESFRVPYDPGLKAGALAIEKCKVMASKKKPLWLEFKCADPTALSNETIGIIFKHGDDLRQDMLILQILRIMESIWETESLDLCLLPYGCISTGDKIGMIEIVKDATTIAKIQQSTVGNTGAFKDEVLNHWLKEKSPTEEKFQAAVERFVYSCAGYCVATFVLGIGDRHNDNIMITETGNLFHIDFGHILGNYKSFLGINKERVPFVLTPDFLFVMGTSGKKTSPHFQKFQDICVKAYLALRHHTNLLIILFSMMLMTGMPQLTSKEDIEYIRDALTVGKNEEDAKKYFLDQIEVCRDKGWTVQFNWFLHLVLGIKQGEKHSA
T1 sequence (P42336 whole entry, canonical isoform): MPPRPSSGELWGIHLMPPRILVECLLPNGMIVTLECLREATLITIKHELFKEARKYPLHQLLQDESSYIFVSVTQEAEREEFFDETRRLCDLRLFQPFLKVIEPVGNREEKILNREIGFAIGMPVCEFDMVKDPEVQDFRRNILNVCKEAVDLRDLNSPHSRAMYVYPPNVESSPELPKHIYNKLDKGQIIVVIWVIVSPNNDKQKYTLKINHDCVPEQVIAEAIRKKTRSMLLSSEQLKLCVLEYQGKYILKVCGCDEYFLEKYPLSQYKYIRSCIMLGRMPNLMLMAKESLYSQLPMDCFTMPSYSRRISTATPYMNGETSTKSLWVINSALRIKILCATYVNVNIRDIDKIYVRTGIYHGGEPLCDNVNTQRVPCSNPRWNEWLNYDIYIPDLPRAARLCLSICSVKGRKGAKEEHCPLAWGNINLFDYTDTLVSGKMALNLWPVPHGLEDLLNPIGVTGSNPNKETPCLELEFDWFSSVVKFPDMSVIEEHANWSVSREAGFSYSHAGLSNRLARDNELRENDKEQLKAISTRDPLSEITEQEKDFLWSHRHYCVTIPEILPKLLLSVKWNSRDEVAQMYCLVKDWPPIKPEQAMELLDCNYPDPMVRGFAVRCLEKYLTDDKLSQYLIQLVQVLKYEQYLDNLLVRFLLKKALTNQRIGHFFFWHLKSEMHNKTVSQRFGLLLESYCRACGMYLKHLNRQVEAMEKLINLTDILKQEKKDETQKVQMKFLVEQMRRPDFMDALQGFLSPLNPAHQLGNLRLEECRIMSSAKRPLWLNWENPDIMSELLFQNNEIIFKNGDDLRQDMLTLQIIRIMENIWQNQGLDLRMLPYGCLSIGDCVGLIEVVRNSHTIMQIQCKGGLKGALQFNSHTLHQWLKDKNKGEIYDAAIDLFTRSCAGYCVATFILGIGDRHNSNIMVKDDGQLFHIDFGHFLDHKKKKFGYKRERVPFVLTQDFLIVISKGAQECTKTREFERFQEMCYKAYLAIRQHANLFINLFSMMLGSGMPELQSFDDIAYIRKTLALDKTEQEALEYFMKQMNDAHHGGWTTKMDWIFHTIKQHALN
T3 sequence (P42338 whole entry, canonical isoform): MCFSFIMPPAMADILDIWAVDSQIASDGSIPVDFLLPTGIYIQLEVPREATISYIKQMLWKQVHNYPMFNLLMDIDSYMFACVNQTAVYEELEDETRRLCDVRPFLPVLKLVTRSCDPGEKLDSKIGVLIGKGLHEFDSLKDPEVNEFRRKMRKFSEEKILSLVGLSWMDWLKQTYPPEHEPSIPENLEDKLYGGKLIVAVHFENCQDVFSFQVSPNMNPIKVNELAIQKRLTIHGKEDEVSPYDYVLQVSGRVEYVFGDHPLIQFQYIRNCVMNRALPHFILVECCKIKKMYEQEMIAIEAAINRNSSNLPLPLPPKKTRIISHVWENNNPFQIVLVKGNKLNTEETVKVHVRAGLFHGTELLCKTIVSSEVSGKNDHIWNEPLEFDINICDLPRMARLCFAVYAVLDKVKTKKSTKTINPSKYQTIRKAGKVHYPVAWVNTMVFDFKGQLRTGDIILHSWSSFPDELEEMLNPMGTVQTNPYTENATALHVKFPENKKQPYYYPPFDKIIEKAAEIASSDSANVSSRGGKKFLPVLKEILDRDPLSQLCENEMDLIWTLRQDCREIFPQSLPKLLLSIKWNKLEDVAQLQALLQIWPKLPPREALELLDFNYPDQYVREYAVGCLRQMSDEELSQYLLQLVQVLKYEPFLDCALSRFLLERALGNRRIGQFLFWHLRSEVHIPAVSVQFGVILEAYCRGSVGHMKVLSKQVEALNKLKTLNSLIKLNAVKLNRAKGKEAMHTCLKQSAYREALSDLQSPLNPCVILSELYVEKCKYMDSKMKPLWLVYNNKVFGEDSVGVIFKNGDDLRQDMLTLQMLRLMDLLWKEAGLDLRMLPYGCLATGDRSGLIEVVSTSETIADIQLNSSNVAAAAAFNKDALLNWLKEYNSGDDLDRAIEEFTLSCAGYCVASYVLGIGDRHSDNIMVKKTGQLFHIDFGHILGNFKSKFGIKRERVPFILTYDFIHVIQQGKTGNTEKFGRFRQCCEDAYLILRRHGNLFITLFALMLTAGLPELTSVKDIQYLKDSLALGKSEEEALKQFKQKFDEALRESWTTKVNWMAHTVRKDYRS
Phosphatidylinositol 4,5-bisphosphate 3-kinase catalytic subunit alpha isoform (Homo sapiens, UniProt P42336, E545K), sequence (P42336 whole entry E545K, the tested form may be a part, canonical isoform): as the sequence (P42336 whole entry, canonical isoform) above, with E545K counted along it
Phosphatidylinositol 4,5-bisphosphate 3-kinase catalytic subunit alpha isoform (Mus musculus, UniProt P42337), sequence (P42337 whole entry, canonical isoform): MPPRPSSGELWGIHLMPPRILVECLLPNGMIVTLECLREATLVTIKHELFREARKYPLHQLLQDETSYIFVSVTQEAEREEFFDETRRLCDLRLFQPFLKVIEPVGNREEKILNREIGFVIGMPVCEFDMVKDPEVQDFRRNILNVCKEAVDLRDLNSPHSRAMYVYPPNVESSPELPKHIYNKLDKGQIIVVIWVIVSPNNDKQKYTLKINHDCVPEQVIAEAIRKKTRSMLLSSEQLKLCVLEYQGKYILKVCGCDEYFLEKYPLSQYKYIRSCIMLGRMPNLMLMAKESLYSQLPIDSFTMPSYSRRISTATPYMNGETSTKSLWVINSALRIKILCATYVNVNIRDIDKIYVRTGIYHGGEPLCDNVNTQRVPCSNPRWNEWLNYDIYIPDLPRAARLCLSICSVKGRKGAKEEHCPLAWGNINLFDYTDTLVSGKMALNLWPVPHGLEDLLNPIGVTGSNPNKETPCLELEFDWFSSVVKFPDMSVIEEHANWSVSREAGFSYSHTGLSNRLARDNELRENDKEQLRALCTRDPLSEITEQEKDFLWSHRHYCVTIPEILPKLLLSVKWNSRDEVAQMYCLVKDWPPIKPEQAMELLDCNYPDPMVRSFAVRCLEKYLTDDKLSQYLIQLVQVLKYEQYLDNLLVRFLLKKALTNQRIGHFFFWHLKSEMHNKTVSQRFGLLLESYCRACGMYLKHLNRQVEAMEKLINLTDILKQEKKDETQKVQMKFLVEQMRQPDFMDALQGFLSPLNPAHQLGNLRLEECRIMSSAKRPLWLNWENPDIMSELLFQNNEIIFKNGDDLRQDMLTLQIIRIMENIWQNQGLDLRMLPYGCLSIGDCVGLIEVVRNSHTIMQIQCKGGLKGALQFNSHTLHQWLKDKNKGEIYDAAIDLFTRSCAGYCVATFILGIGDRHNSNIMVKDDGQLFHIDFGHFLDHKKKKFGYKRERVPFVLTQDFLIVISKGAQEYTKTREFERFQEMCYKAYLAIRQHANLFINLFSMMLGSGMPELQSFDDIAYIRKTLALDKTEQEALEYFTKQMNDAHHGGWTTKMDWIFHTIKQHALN
Phosphatidylinositol 4,5-bisphosphate 3-kinase catalytic subunit alpha isoform (Homo sapiens, UniProt P42336, H1047R), sequence (P42336 whole entry H1047R, canonical isoform): as the sequence (P42336 whole entry, canonical isoform) above, with H1047R counted along it

| Compound | IC50 (cells [6]) [nM] | IC50 [17] [nM] | IC50 [18] [nM] | IC50 [19] [nM] | IC50 (cells [21]) [nM] | IC50 (cells [22]) [nM] | further results |
| --- | --- | --- | --- | --- | --- | --- | --- |
| COc1cc(N)cc2c1nc(C(F)F)n2-c1nc(N2CCOCC2)nc(N2CCOCC2)n1 | 12 | – | – | – | – | – | half-life [1]: 1.48 h; AUC(0-inf) [2]: 5.22 µM·h; Tmax [3]: 0.083 h; Cmax [4]: 3450 nM; Activity (Mus musculus [5]): Toxic |
| Cn1c(=O)n(-c2ccc(C(C)(C)C#N)cc2)c2c3cc(-c4cnc5ccccc5c4)ccc3ncc21 [DACTOLISIB] | – | – | – | – | – | – | inhibition in vivo at 15 mg/kg [7]: 31.5%; Activity (Mus musculus [8]): Non-toxic |
| COc1ccc2c(nc(C(F)F)n2-c2nc(N3CCOCC3)nc(N3CCOCC3)n2)c1O | 507 | 0.3 | 6.7 | 37 | 130 | 334 | IC50 [9]: 378 nM; IC50 [10]: 583 nM; IC50 [11]: 49 nM; IC50 [12]: 158 nM; IC50 [13]: 52 nM; IC50 [14]: 2 nM; IC50 [15]: 44 nM; IC50 [16]: 70 nM; IC50 (cells [20]): 515 nM |
| CS(=O)(=O)O.Cn1c(=O)n(-c2ccc(C(C)(C)C#N)cc2)c2c3cc(-c4cnc5ccccc5c4)ccc3ncc21 | – | – | – | – | – | – | solubility at […] [23]: 11.3 µg/mL |
| Oc1cccc2c1nc(C(F)F)n2-c1nc(N2CCOCC2)nc(N2CCOCC2)n1 | 8.3 | 0.27 | 0.68 | 0.9 | 10 | 30 | half-life [1]: 1.55 h; AUC(0-inf) [2]: 1.03 µM·h; Tmax [3]: 0.25 h; Cmax [4]: 628 nM; IC50 [9]: 2.9 nM; IC50 [10]: 1.3 nM; IC50 [11]: 0.12 nM; IC50 [12]: 0.83 nM; IC50 [13]: 6 nM; IC50 [14]: 0.65 nM; IC50 [15]: 3.5 nM; IC50 [16]: 0.53 nM; IC50 (cells [20]): 0.18 nM; solubility at […] [23]: 0.32 µg/mL (≈ 0.738 µM) |
| CNc1cc(OC)c2nc(C(F)F)n(-c3nc(N4CCOCC4)nc(N4CCOCC4)n3)c2c1 | – | 0.52 | 0.91 | 2 | 16 | 390 | – |
| FC(F)c1nc2ccccc2n1-c1nc(N2CCOCC2)nc(N2CCOCC2)n1 [ZSTK-474] | 97 | – | – | – | – | – | inhibition in vivo at 40 mg/kg [24]: 65.3%; half-life [1]: 1.52 h; AUC(0-inf) [2]: 9.66 µM·h; Tmax [3]: 2 h; Cmax [4]: 2360 nM; Activity (Mus musculus [25]): Non-toxic; IC50 (cells [20]): 78 nM; solubility at […] [23]: 0.61 µg/mL (≈ 1.46 µM) |
| COc1cc(N)cc2c1nc(C(F)F)n2-c1nc(N2CCOCC2)nc(N2CCOCC2)n1.CS(=O)(=O)O | – | – | – | – | – | – | solubility at […] [23]: 4.2 µg/mL |
| CN(C)C(=O)c1cccc2c1nc(C(F)F)n2-c1nc(N2CCOCC2)nc(N2CCOCC2)n1 | – | > 1000 | > 1000 | > 1000 | 240 | 730 | – |
| CCOc1cccc2c1nc(C(F)F)n2-c1nc(N2CCOCC2)nc(N2CCOCC2)n1 | – | 5.5 | 104 | 2.7 | 40 | 70 | – |
| CSc1nc2ccccc2n1-c1nc(N2CCOCC2)nc(N2CCOCC2)n1 | – | 270 | > 1000 | 2900 | 200 | 200 | – |
| COc1cccc2c1nc(C(F)F)n2-c1nc(N2CCOCC2)nc(N2CCOCC2)n1 | 37 | 3.9 | 25 | 2.7 | 10 | 50 | IC50 [9]: 28 nM; IC50 [10]: 55 nM; IC50 (cells [20]): 25 nM; solubility at […] [23]: 0.08 µg/mL (≈ 0.179 µM) |
| Nc1cccc2c1nc(C(F)F)n2-c1nc(N2CCOCC2)nc(N2CCOCC2)n1 | – | 0.85 | 41 | 4.8 | 80 | 50 | – |
| OCc1cccc2c1nc(C(F)F)n2-c1nc(N2CCOCC2)nc(N2CCOCC2)n1 | – | 12 | 68 | 27 | 170 | 300 | – |
| FC(F)Oc1cccc2c1nc(C(F)F)n2-c1nc(N2CCOCC2)nc(N2CCOCC2)n1 | 415 | 7.4 | 56 | 26 | 28 | 47 | IC50 [9]: 418 nM; IC50 [10]: 427 nM; IC50 [11]: 3 nM; IC50 [12]: 8.5 nM; IC50 [13]: 56 nM; IC50 [14]: 34 nM; IC50 [15]: > 2500 nM; IC50 [16]: 4.7 nM; IC50 (cells [20]): 381 nM |
| CS(=O)(=O)Cc1nc2ccccc2n1-c1nc(N2CCOCC2)nc(N2CCOCC2)n1 | – | 54 | 250 | 480 | 440 | 250 | – |
| CNc1cccc2c1nc(C(F)F)n2-c1nc(N2CCOCC2)nc(N2CCOCC2)n1 | – | 67 | 480 | 210 | 260 | 110 | – |
